Measurements published in patent US20030091533A1, “Regulation of mononuclear phagocyte stimulation” (priority 2001, published 2003).

How the values were obtained:
Format in all cases: cell-based, human
ERK½ = ERK½ MAP kinase phosphorylation immunoblot in PBM; settings: pretreatment before LPS 1 μg/ml; IL-9 20 ng/ml 24 hour; PD98059 1 hour
Procedure: PBM, isolated as described infra, were treated with 100 !M PD98059 (or with the same volume of DMSO as control) 1 hour before preincubation for 24 hour with medium or IL-9 (20 ng/ml). For the phosphoERK immunoblot assay (A), PBM were then stimulated by LPS (1 μg/ml) for the indicated periods of time (5 min to 20 hours) as compared to unstimulated cells (med), and processed for the detection of phosphorylated and total ERK½ as described in infra. For the oxidative burst (B), PBM were stimulated by LPS (1 μg/ml) for 20 hour and their oxidative capacity was evaluated through DCFH oxidation The results are presented in FIG. 7.
PBM were preincubated for 24 hour with medium alone (med) or IL-9, IL-4 or TGF-β1 (20 ng/ml), and stimulated by LPS (1 μg/ml) for the indicated periods of time (30 to 240 min). […]
PBM (1×10^6) were preincubated for 24 hour with medium alone or with cytokines (IL-9, IL-4 or TGF-β1 at 20 ng/ml) and stimulated from 5 min to 20 hour by 1 μg/ml LPS. […] Cell extracts (10 μg, as determined by the bicinchoninic acid-based assay) were subjected to SDS-12%PAGE, and electrotransferred onto a nitrocellulose membrane (Amersham) immunoblotted to detect and compare phosphorylated (threonine^202/tyrosine^204 residues) and total ERK½, using specific antibodies and enhanced chemiluminescence (New England Biolabs). […]

LPS-stimulated AM [1] = assay: TGF-β1 release by ELISA, AM; settings: acid-treated supernatants; preincubated 24 hour 20 ng/ml, LPS 20 h; medium-preincubated 109±23
Procedure: (§1) FIG. 6 depicts the effect of IL-9, IL-4 and IFN-γ on the release of IL-10 (A) and TGF-β1 (B) by LPS-stimulated PBM and AM cultured under the same conditions as described in FIG. 5 Example I. D. TGF-β1 was determined by ELISA in crude supernatants (untreated supernatants) and in ethanol-acid (acid-treated) supernatants, using a kit from Biosource for determining TGF-β1 release from its latent complexes. An ELISA kit from CLB (Amsterdam, The Netherlands) was used to determine IL-10 following the manufacturer's protocol. […] Data are means±SEM (n=3). *P<0.05 compared with unstimulated cells; **P<0.05 compared with cells preincubated with medium.
(§2) Cells (1×10^6 PBM or 0.5×10^6 AM/well) were distributed in 24-well plates (Falcon), preincubated in cRPMI for 24 hours at 37° C., 5% CO2 with cytokines (IL-9, IL-4 (20 ng/ml) and IFN-γ (200 U/ml)) and stimulated for 20 hours with 1 μg/ml LPS without removing cytokines. […] Release of TNF-α was quantified by a cytotoxicity bioassay using WEHI 164 cells clone 13, as previously described (Espevik and Nissen-Meyer, J. Immunol. Methods, 95:99-105 (1986) incorporated herein by reference), using rhTNF-α from Boehringer as a standard. IL-8, IL-10 and TGF-β1 concentrations were determined by ELISA. A kit from CLB (Amsterdam, The Netherlands) was used for IL-10 quantitation, following the manufacturer's protocol. […]

LPS-stimulated AM [2] = assay: IL-10 release by ELISA, AM; settings: preincubated 24 hour, LPS 20 h
Procedure: as §1, §2

IL-9: Human IL-9 purified from SF9 insect cell cultures infected with recombinant baculovirus
LPS-induced ERK½ phosphorylation in PBM (ERK½): strongly down regulates
production of TGF-β1 by LPS-stimulated AM (LPS-stimulated AM [1]): 366+21 pg/ml

B1: IFN-γ: Interferon gamma, primes mononuclear phagocytes, 200 U/ml (protein, UniProt P01579 24-161, looked up)
Interferon gamma: QDPYVKEAENLKKYFNAGHSDVADNGTLFLGILKNWKEESDRKIMQSQIVSFYFKLFKNFKDDQSIQKSVETIKEDMNVKFFNSNKKKRDDFEKLTNYSVTDLNVQRKAIHELIQVMAELSPAAKTGKRKRSQMLFRG
IL-10 release by LPS-stimulated AM (LPS-stimulated AM [2]): decreased
